# Like-named read-outs stand apart in the source and are kept apart here.
# How the values were obtained:
# Solubility in water = assay type: physicochemical
# Protocol: For example, the volume of water required to dissolve 1 mg of various glycosides is as following; 2 to 3 ml for 17-glucoside, 2 ml for 17-maltoside, 0.7 ml for 2-glucoside, and 3 ml for 3-glucoside, while 1 mg of 2-hydroxyestradiol cannot be dissolved in 3 ml of water. Accordingly, the glycosides obtained in the present invention provide a way to prepare an injection containing the same.
# rat brain homogenate = assay: Inhibitory effect on the lipid peroxidation of rat brain homogenate (thiobarbituric acid method); assay type: biochemical; details: for amount of lipid peroxides in terms of malondialdehyde: 37° C.
# Protocol: (Inhibitory effect of 2-hydroxyestradiol 2-glucoside on the lipid peroxidation of rat brain homogenate)
# 2-Hydroxyestradiol 2-(β-D-glucopyranoside) (2-OHE2 2-Glu) obtained according to the method of this invention (Example 16) was dissolved in water to give a concentration of 1 mM or 0.5 mM. The reaction mixture contains the followings in a final volume of 2 ml; 1.98 ml of rat brain homogenate (10 mg protein/ml) and 2-OHE2 2-Glu at a concentration of 5 μM or 10 μM. After incubation at 37° C., lipid peroxide level was determined by the thiobarbituric acid method.
# Values in Table 2 indicate the amount of lipid peroxides (nmol/mg protein
# in terms of malondialdehyde.
# Male mice of ddY strain = assay: Acute toxicity (intraperitoneal injection); assay type: in vivo, mouse; details: 250, 500, 750 or 1000 mg/kg i.p.; observation period of 2 weeks
# Protocol: (§1) Male mice of ddY strain were received 2-OHE2 17-Glu or 2-OHE2 2-Glu by an intraperitoneal injection at doses of 250 mg, 500 mg, 750 mg, or 1000 mg/kg body weight.
# [1] = Acute toxicity (intraperitoneal injection); assay type: in vivo, mouse; details: mouse, in vivo, ip; male ddY mice, intraperitoneal; 2 weeks
# Protocol: as §1
# rat liver homogenate = assay: Inhibitory effect on the lipid peroxidation of rat liver homogenate (thiobarbituric acid method); assay type: biochemical; details: 10 μM; 4 hours at 37° C.
# Protocol: (Inhibitory effect of 2-hydroxyestradiol 2-glucoside on the lipid peroxidation of rat liver homogenate)
# A rat liver homogenate was prepared in 4 volume of 0.15M KCl .2-OHE2 2-Glu was dissolved in distilled water and 2-OHE2, in 1% DMSO, to give a final concentration of 1 mM. The reaction mixture contained the followings in a final volume of 2 ml; 1.98 ml of rat liver homogenate (10 mg protein/ml) and 10 μM either 2-PHE2 2-Glu or 2-OHE2. As blank tests, the same volume of distilled water or 1% DMSO was added in place of 2-OHE2 2-Glu or 2-OHE2. After incubation for 4 hours at 37° C., lipid peroxide level was determined by the thiobarbituric acid method.
# [2] = system: low-density lipoprotein (LDL); assay: Inhibitory effect on the lipid peroxidation of low-density lipoprotein (CuSO4-induced; methylene blue method); assay type: biochemical, rabbit (hypercholesterolemic); details: for amount of lipid peroxides: LDL + CuSO4, 5 nmol compound in 1 ml
# Protocol: (Inhibitory effect of 2-hydroxyestradiol 17-glucoside on the lipid peroxidation of low-density lipoprotein)
# Low-density lipoprotein (LDL) was prepared from hypercholesterolemic rabbit serum. 2-Hydroxyestradiol 17-(β-D-glucopyranoside) (2-OHE2 17-Glu) obtained according to the method of this invention (Example 4 ) was dissolved in distilled water and 2-hydroxyestradiol (2-OHE2) as a reference compound, in dimethylsulfoxide (DMSO), to give a final concentration of 500 μM. The reaction mixture contained the followings in a final volume of 1 ml: 500 μg of LDL; 5 nmol of CuSO4; and 5 nmol of either 2-OHE2 17-Glu or 2-OHE2. As blank tests, distilled water or DMSO was added in place of 2-OHE2 17-Glu or 2-OHE2. After incubation for a definite time at […], the amount of lipid hydroperoxides generated was determined by the methylene blue method.
# Values in TABLE 1 indicate the amount of lipid peroxides (nmol/mg
# [3] = Incorporation of glycosides of 2-hydroxyestradiol into red blood cells; assay type: in vitro ADME; details: red blood cell suspension, 0.2 nmol compound, 37° C., read-out: residual amount in the incubation medium
# Protocol: (§2) (Incorporation of glycosides of 2-hydroxyestradiol into red blood cells)
# (§3) The reaction mixture contained 0.2 nmol of 2-OHE2, 2-OHE2 17-Glu, or 2-hydroxyestradiol 17-(β-maltoside) (2-OHE2 17-Mal, obtained in Example 5) in 0.1 ml of 0.2% DMSO-0.1% ascorbic acid in phosphate buffered saline (PBS) and 0.9 ml of suspension of red blood cells in PBS. After incubation at 37° C. for several intervals, the mixture was centrifuged and supernatant fraction was obtained, and then the amount of each glycoside of 2-hydroxyestradiol remained in the supernatant was determined by HPLC.
# (§4) Values in Table 3 indicate residual amount (%) in the incubation medium.
# red blood cells = assay: as above; assay type: in vitro ADME
# Protocol: as §2, §3, §4
Structure (SMILES),solubility (Solubility in water) [mL],solubility (Solubility in water; water) [µg/mL],abnormal symptoms (in words) (Male mice of ddY strain),survival (in words) (Male mice of ddY strain),LD50 at 336 h [1] [mg/kg],inhibition of the lipid peroxidation (rat liver homogenate) [%],amount of lipid peroxides ([2]; incubation 1 hr) [nmol/mg protein],amount of lipid peroxides ([2]; incubation 2 hr) [nmol/mg protein],amount of lipid peroxides ([2]; incubation 3 hr) [nmol/mg protein],amount of lipid peroxides ([2]; incubation 4 hr) [nmol/mg protein],incorporation into red blood cells (in words) (red blood cells),further results
"C[C@]12CC[C@@H]3c4cc(O[C@@H]5O[C@H](CO)[C@@H](O)[C@H](O)[C@H]5O)c(O)cc4CC[C@H]3[C@@H]1CC[C@@H]2O [2-OHE2 2-Glu, 2-Hydroxyestradiol 2-(β-D-glucopyranoside)]",0.5 to 1,1430,no abnormal symptom was found,All mice survived,> 100,77,,,,,,"inhibition of the lipid peroxidation (in words) (rat brain homogenate; 5 μM and 10 μM): strongly inhibited the lipid peroxidation in a concentration dependent manner; amount of lipid peroxides in terms of malondialdehyde (rat brain homogenate; 5 μM, incubation 0 hr): 0.271 nmol/mg protein; amount of lipid peroxides in terms of malondialdehyde (rat brain homogenate; 5 μM, incubation 1 hr): 1.124 nmol/mg protein; amount of lipid peroxides in terms of malondialdehyde (rat brain homogenate; 5 μM, incubation 2 hr): 1.867 nmol/mg protein; amount of lipid peroxides in terms of malondialdehyde (rat brain homogenate; 5 μM, incubation 4 hr): 3.167 nmol/mg protein; amount of lipid peroxides in terms of malondialdehyde (rat brain homogenate; 10 μM, incubation 0 hr): 0.271 nmol/mg protein; amount of lipid peroxides in terms of malondialdehyde (rat brain homogenate; 10 μM, incubation 1 hr): 0.905 nmol/mg protein; amount of lipid peroxides in terms of malondialdehyde (rat brain homogenate; 10 μM, incubation 2 hr): 1.326 nmol/mg protein; amount of lipid peroxides in terms of malondialdehyde (rat brain homogenate; 10 μM, incubation 4 hr): 1.534 nmol/mg protein"
C[C@]12CC[C@@H]3c4cc(O)c(O[C@@H]5O[C@H](CO)[C@@H](O)[C@H](O)[C@H]5O)cc4CC[C@H]3[C@@H]1CC[C@@H]2O [2-Hydroxyestradiol 3-(β-D-glucopyranoside)],3,333,,,,,,,,,,
"C[C@]12CC[C@@H]3c4cc(O)c(O)cc4CC[C@H]3[C@@H]1CC[C@@H]2O [Example 2-OHE2, 2-hydroxyestradiol, reference compound]",,,,,,73,17.45,24.55,27.29,30.74,,"solubility (Solubility in water; per 1 mg, water, read-out: volume of water required to dissolve 1 mg): < 333 µg/mL; remaining at 0.5 min ([3]; 0.5 min): 4.4%; remaining at 1 min ([3]; 1.0 min): 4.4%; remaining at 2 min ([3]; 2.0 min): 3.7%"
"C[C@]12CC[C@@H]3c4cc(O)c(O)cc4CC[C@H]3[C@@H]1CC[C@@H]2O[C@@H]1O[C@H](CO)[C@@H](O)[C@H](O)[C@H]1O [2-OHE2 17-Glu, 2-Hydroxyestradiol 17-(β-D-glucopyranoside)]",2 to 3,333 to 500,no abnormal symptom was found,All mice survived,> 100,,8.93,19.48,24.76,32.17,markedly retarded as compared with that of 2-OHE2,inhibitory potency on LDL peroxidation (in words) ([2]; compared with 2-OHE2): the same to that of 2-OHE2; inhibition of the peroxidation of LDL (in words) ([2]; in words): clearly inhibited the peroxidation of LDL
"C[C@]12CC[C@@H]3c4cc(O)c(O)cc4CC[C@H]3[C@@H]1CC[C@@H]2O[C@@H]1O[C@H](CO)[C@@H](O[C@H]2O[C@H](CO)[C@@H](O)[C@H](O)[C@H]2O)[C@H](O)[C@H]1O [2-OHE2 17-Mal, 2-hydroxyestradiol 17-(β-maltoside)]",2,500,,,,,,,,,markedly retarded as compared with that of 2-OHE2,
